# Source: patent US20240099298A1, “BIOINSECTICIDAL COMPOSITIONS CONTAINING MONOTERPENES AND METHODS OF USE THEREOF” (priority 2017, published 2024)
# Several values for one entry are separate records, joined by “and”; a condition that tells them apart may be missing. Equal values may be shown once. Read-outs that look alike come from different tables or passages of the source.
# Experiments:
# [1] = system: Frankliniella occidentalis second-instar nymphs; test: whole plant or invertebrate; conditions: 24 h
# Method: Chemicals. […] These monoterpenes and the positive control spinosyn A (Bosite Technology, Chongqing, China) were dissolved in acetone (10 g/L).
# Insects. F. occidentalis Thrips were provided by the Institute of Vegetables and Flowers, Chinese Academy of Agricultural Sciences (Beijing, China), and kept in a box (19 cm×14 cm×20 cm) at 27±1° C., humidity of 50%-60% and a photoperiod of 16:8 h (light:dark). The population was established with sword beans (Canavalia gladiata). Second-instar nymphs with the same growth were tested.
# Insect Assays. […] The leaf blade (2 cm×3 cm) was immersed in the solution for 10 s in the test solution, and then air-dried until there were no water drops on the surface. The concentrations were the same as those used in the insecticide-impregnated membrane method. After the chemical film had been formed for 2 h, the infusion leaves were placed in the bottles. The second-instar nymphs were picked with a soft writing brush to make up ten insects per bottle. The bottles were sealed with plastic wrap. 1% Triton X-100 (m/V) aqueous solution as a blank control. Each treatment was repeated four times. The bottles were placed under temperature of 27±1° C., humidity of 50%-60% and photoperiod of 16:8 h (light:dark). […] The insects were touched with a soft brush and numbers of dead and living Thrips were recorded, followed by calculation of the mortality rates.
# [2] = biological target: T1, rGABARAP^Y174A (Frankliniella occidentalis, UniProt A0A6J1T1Q2); test: ITC binding to rGABARAP mutant
# T1 sequence (A0A6J1T1Q2 entry or part of it, stated change not applied): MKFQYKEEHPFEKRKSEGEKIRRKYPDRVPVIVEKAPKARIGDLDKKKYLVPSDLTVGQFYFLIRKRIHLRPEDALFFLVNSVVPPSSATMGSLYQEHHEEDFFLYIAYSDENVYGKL
# Method: (§1) The isothermal titration thermal binding measurements were performed with an ITC-200 calorimeter (GE Healthcare, Boston, MA) at 25° C. in a buffer containing 50 mM Tris-HCl and 100 mM NaCl (pH 7.4). […] The MicroCal Origin 7.0 software system was used for data processing. The first run was a pre-run and was excluded from the final data. The amount of protein in the sample pool was constant. […] The experimental bimolecular interaction data from the 18 drops were used to calculate the dissociation constant. The dissociation constant […] was calculated as 1/K (Li, et al. (2018) RSC Advances 8:18952-18958).
# (§2) Preparation of rGABARAP Mutant and Interaction Between ME and rGABARAP Mutant. […] DNAman was used to convert the nucleic acid sequence into an amino acid sequence and find the Y174 site. Y174 was mutated to A174. The rGABARAP mutant gene loaded into the pMCSG19 vector and the His tags at both ends of the sequence were retained to construct a prokaryotic expression plasmid. The carrier contained a maltose binding protein (MBP) tag that was not cut for verification. However, MBP and ME were used as treatment controls. The mutant plasmid was constructed in Sangon Biotech (Shanghai, China). The protein expression, purification, and desalting procedures of rGABARAP^Y174A mutant and rGABARAP were the same. Subsequently, the binding kinetics of ME and rGABARAP^Y174A were tested by MST and ITC.
# [3] = biological target: T2, recombinant gamma-aminobutyric acid receptor-associated protein (rGABARAP) (Frankliniella occidentalis, UniProt A0A6J1T1Q2); test: Isothermal titration calorimetry (ITC) binding to rGABARAP; conditions: 25° C., pH 7.4
# T2 sequence (A0A6J1T1Q2 1-118): as the sequence (A0A6J1T1Q2 entry or part of it, stated change not applied) above
# Method: (§3) Preparation of recombinant GABARAP (rGABARAP) protein. RNA was extracted from F. occidentalis and cDNA was then synthesized. GABARAP (GenBank accession No. LOC113211372) was obtained after PCR amplification (Stafford-Banks, et al. (2014) Plos One 9:e94447).
# as §1
# [4] = biological target: T2, recombinant gamma-aminobutyric acid receptor-associated protein (rGABARAP); test: Microscale thermophoresis (MST) binding to rGABARAP
# Excerpt: as §3
# (§4) Interaction between ME and rGABARAP. A Nano Temper Monolith NT.115 MST system (Nano Temper, Munich, Germany) was used to assess the binding affinities between the target compounds and rGABARAP according to the published procedures (Zan, et al. (2020) Journal of Agricultural and Food Chemistry 68:6280-6285). Spinosyn A was used as a chemical positive control. Spinosyn A (≥1 nM) can trigger a change of the Cl^− current of insect neuron GABAAR, which is considered to be an insecticidal action mechanism of spinosyn A (Watson (2001) Pesticide Biochemistry and Physiology 71:20-28). Ovalbumin (OVA) (Sangon Biotech, Shanghai, China) is a control protein consisting of 385 amino acid residues. The interaction between OVA and ME was used as a protein control experiment (Huntington, et al. (1995) Protein Science 4:613-621).
# [5] = biological target: T1, rGABARAP^Y174A; test: MST binding to rGABARAP mutant; conditions: for Kd: read-out: Kd value, MST
# Method: as §4, §2
# [6] = system: Megalurothrips usitatus (flower Thrips); conditions: adult M. usitatus, 24 hours of fumigation in 1-L flasks
# [7] = system: housefly adults; conditions: cited from earlier work
# [8] = system: Musca domestica (housefly); test: Median knockdown concentration (KC50) test, housefly; assay type: in vivo; conditions: Musca domestica
# Excerpt: (§5) All treatments and controls were in triplicate.
# (§6) Knockdown Activity of Monoterpenes.
# [9] = system: B. cucuribitae (melon fly); test: Median lethal time (LT50) test, melon fly; assay type: in vivo, Bactrocera cucuribitae
# Excerpt: as §5
# (§7) Toxicity of Monoterpenes as Fumigants. […] Therefore, to determine how fast the monoterpenes act as fumigants, it was necessary to determine their LT50 values for the target organisms.
# [10] = system: honeybee Apis mellifera; test: 24-hour fumigation assay on honeybee; conditions: for Mortality ± STD: 60 bees; for toxicity to honeybee (in words): 24-hour fumigation
# Excerpt: Experiments were done with 20 bees per group in triplicate.
# Activity of Monoterpenes Against Honeybees. The honeybee (Apis mellifera) is the most frequent floral visitor of crops worldwide.
# [11] = system: Aedes aegypti (mosquito); test: Median knockdown concentration (KC50) test, mosquito; assay type: in vivo
# Excerpt: as §5, §6
# [12] = system: A. japonicus (parasitic wasp); test: Median lethal time (LT50) test, parasitic wasp (natural enemy)
# Method: (§8) Insect Egg Parasitic Wasp (Natural Enemy). […] Both species were purchased from a commercial source. One- to two-day-old adults (after eclosion) were used for fumigation tests.
# Median Lethal Time (LT50) and Median Knockdown Concentration (KC50) Tests. Five species of adult insects or natural enemies were tested for LT50 values including melon fly (B. cucuribitae), red flour beetle (T. castaneum), Nitidulidae beetle (H. picinus), parasitic wasp (A. japonicus) and housefly (M. domestica). For each treatment and control, 20 insects at the developmental stages described above were placed individually without food in a 1-L wide-mouth glass bottle (height 19.5 cm, bottom diameter 10.5 cm, mouth i.d. 5.5 cm) containing pieces of tissue paper. […] Five different concentrations of the test chemicals were placed on pieces of cellulose-based qualitative filter paper. Each of the filter papers was placed in a bottle to have 5 appropriate concentrations in serial dilutions. DDVP was the positive control, and no chemical treatments were the negative control. All treatments and controls were in triplicate. Mortality was observed periodically in a 10-30 minute interval for 2 days or until all insects died. The death was defined as no movement when the insects were touched.
# [13] = system: H. picinus (Nitidulid beetle); test: Median lethal time (LT50) test, Nitidulid beetle; assay type: in vivo, Haptoncus picinus
# Excerpt: as §5, §7
# [14] = system: Blatta lateralis (Walker) (cockroach)
# Excerpt: (§9) Median Lethal Concentration Tests. […] The species tested included Thrips (M. usitatus), spider mite (T. cinnabarinus), melon fly (B. cucuribitae), cockroach (B. lateralis), housefly (M. domestica), mosquito (A. aegypti), parasitic wasp (T. chilonis) and fruit fly (Drosophila melanogaster). After being exposed to the test chemicals for one hour, adult Thrips, spider mites, and roaches were transferred to another flask. In addition to fresh water, adult Thrips, spider mites, and roaches were then respectively fed with cowpea, fresh blade of eggplant, and peanut oil via filter. […] Mortality of melon fly was observed after three hours of exposure.
# [15] = system: Bactrocera cucuribitae (Coquillett) (melon fly)
# Excerpt: as §9
# [16] = system: Tetranychus cinnabarinus (Boisduval) (spider mites)
# Excerpt: as §9
# [17] = system: Aedes aegypti (Linnaeus) (mosquito)
# Excerpt: as §9
# [18] = system: Musca domestica (Linnaeus) (housefly)
# Excerpt: as §9
# [19] = system: Drosophila melanogaster (fruit fly); test: Median lethal concentration fumigation test, fruit fly; assay type: in vivo; conditions: mortality after 280 minutes
# [20] = system: Megalurothrips usitatus (Bagrall) (thrips); test: Median lethal concentration fumigation test, thrips
# Excerpt: as §9
# [21] = T 25 °C; cited from earlier work
# [22] = system: Thrips Megalurothrips usitatus; conditions: 24-hour fumigation assay, 0-0.192 μL/dm^3
# [23] = system: T. castaneum (red flour beetle); test: Median lethal time (LT50) test, red flour beetle; assay type: in vivo, Tribolium castaneum
# Excerpt: as §5, §7
# [24] = system: T. chilonis (parasitic wasp); conditions: non-target parasitic wasp, mortality after 15 minutes of exposure
# Excerpt: as §8, §9
# [25] = system: adult T. palmi; conditions: cited from earlier work
# [26] = rGABARAP, read-out: Kd value, MST
# [27] = adult thrips, exposed one hour, mortality observed in 24 hours
structure (smiles),measurement,setting,value
"COc1cccc2c1cc([N+](=O)[O-])c1c(C(=O)O)cc3c(c12)OCO3 [Aristolochic acid A, 3,4-methylenedioxy-8-methoxy-10-nitro-1-phenanthrenecarboxylicacid, reference compound]",LC50,[1],40 µg/mL
same,"Kd value, ITC",[2],No binding
same,"Kd value, ITC",[3],no binding
same,Kd,[4],146000 nM
same,Kd,[5],158 ± 82 µM
"C/C=C/c1ccc(OC)cc1 [Anethole, 1-(4-methoxyphenyl) -1-propen]","Kd value, ITC",[2],No binding
same,Kd,[3],4.49 µM
same,Kd,[4]; [26],1610 nM
same,Kd,[5],41 ± 36.4 µM
"C=CCc1ccc(OC)c(OC)c1 [Eugenol methyl ether, 1-(3,4-dimethoxyphenyl) -2-propene]","Kd value, ITC",[2],neither MBP nor ME interacted
same,Kd,[3],4.22 µM
same,Kd,[4]; [26],1300 nM
same,"Kd value, MST",[5],loss of binding
same,activity against flower Thrips in preliminary screening,[6],exhibit insecticidal activity
CC1CCC(C(C)C)C(O)C1 (centres unmarked) [menthol],repellent activity,[7],96%
CC(C)[C@@H]1CC[C@@H](C)CC1=O [menthone],repellent activity,[7],83%
CC(C)=C1CC[C@@H](C)CC1=O [(+)-Pulegone],KC50 (fiducial limits),[8]; 20 Minutes,>243 µg/mL
same,KC50 (fiducial limits),[8]; 30 Minutes,12.2 µg/mL
same,LT50 (fiducial limits),[9],0.87 h
same,fold faster action relative to the other five monoterpenes (LT50),[9],at least 1.9 fold
same,Mortality ± STD,"[10]; 0.012 μL/dm^3, 24-hour fumigation",5.0 ± 8.7%
same,Mortality ± STD,"[10]; 0.024 μL/dm^3, 24-hour fumigation",3.3 ± 5.8%
same,Mortality ± STD,"[10]; 0.048 μL/dm^3, 24-hour fumigation",5.0 ± 5.0%
same,Mortality ± STD,"[10]; 0.096 μL/dm^3, 24-hour fumigation",5.0 ± 5.0%
same,Mortality ± STD,"[10]; 0.192 μL/dm^3, 24-hour fumigation",8.3 ± 7.6%
same,mortality relative to no chemical control,"[10]; 0.2 μL/dm^3, 24-hour fumigation",3%
same,toxicity to honeybee (in words),[10],little lethal toxicity
same,toxicity to honeybee (in words),[10]; listed as (+)-pulegone,failed to have a negative impact
same,KC50 (fiducial limits),[11]; 10 Minutes,19.6(8.41-35.5) μg/cm^3
same,KC50 (fiducial limits),[11]; 20 Minutes,1.40 µg/mL
same,KC50 (fiducial limits),[11]; 30 Minutes,1.4 µg/mL
same,LT50 fold greater than that of DDVP,[12]; A. japonicus,approximately 1.2 fold
same,LT50 (fiducial limits) against A. japonicus,[12]; non-target parasitic wasp,0.47 (0.00-0.68) hour
same,LT50 (fiducial limits),[13],0.50 h
same,fold faster action relative to the other five monoterpenes (LT50),[13],≥ 1.2 fold
same,LT50 (fiducial limits),[13]; listed as (+)-pulegone,0.500 h
same,LC90 (fiducial limits),"[14]; cockroach second instar nymphs, exposed one hour",173 µg/mL
same,LC50 (fiducial limits),[14]; in vivo,15.0 µg/mL
same,LC50 (fiducial limits),[15]; in vivo,112 µg/mL
same,LC90 (fiducial limits),[15]; melon fly,657 µg/mL
same,LC50 (fiducial limits),[16]; in vivo,2.52 µg/mL
same,LC90 (fiducial limits),"[16]; spider mites, exposed one hour",40.8 µg/mL
same,LC90 (fiducial limits),"[17]; adult mosquito, exposed 30 minutes, mortality in 24 hours",16.8 µg/mL
same,LC50 (fiducial limits),[17]; in vivo,10.3 µg/mL
same,LC90 (fiducial limits),"[18]; adult housefly, exposed one hour, mortality in 24 hours",11.9 µg/mL
same,LC50 (fiducial limits),[18]; in vivo,7.38 µg/mL
same,LC50 (fiducial limits),[19],0.043 ng/mL
same,LC90 (fiducial limits),[19],0.14 ng/mL
same,LC50 (fiducial limits),[20]; [27],0.20 µg/mL
same,LC90 (fiducial limits),[20]; [27],0.67 µg/mL
same,LC50 (fiducial limits),"[20]; adult thrips, exposed one hour, mortality observed in 24 hours, listed as (+)-pulegone",0.196 µg/mL
same,activity fold greater (smaller LC50) than positive control DDVP,[20]; thrips,3.5 fold
same,Vp (Pa)/T (° C.),[21],16.3/25 Pa
same,Kd,[4]; [26],1720 nM
same,LC50,[22],0.079 μL/dm^3
same,LT50 (fiducial limits),[23],3.47 h
same,LC50 (fiducial limits) against T. chilonis,[24],2.02 µg/mL and 2.06 µg/mL
same,LC90 (fiducial limits) against T. chilonis,[24],12.1 µg/mL
same,activity against flower Thrips in preliminary screening,[6],exhibit insecticidal activity
CC(C)=C1CC[C@H](C)CC1=O [(−)-Pulegone],LC50 (fiducial limits),[19],0.106 ng/mL
same,LC90 (fiducial limits),[19],0.359 ng/mL
same,Vp (Pa)/T (° C.),[21],16.3/25 Pa
same,Kd,[4]; [26],2530 nM
same,LC50,[22],0.119 μL/dm^3
same,"LC50, fumigation toxicity",[25],9.5 µg/mL
